Measurements taken from patent publication US7803940B2, “Heteromonocyclic compound or a salt thereof having strong antihypertensive action, insulin sensitizing activity and the like production thereof and use thereof for prophylaxis or treatment of cardiovascular diseases, metabolic diseases and/or central nervous system diseases” (Takeda Pharmaceutical Company Limited, priority 2006, dated 2010).
Where a name gives a salt, the structure may show the parent alone. Read-outs that look alike come from different tables or passages of the source.

How the values were obtained:
[1] = target: T1, PPARγ (Homo sapiens, UniProt P37231); assay: Evaluation of PPARγ activating action (luciferase reporter, PPARγ:RXRα:4ERPP/CHO-K1 cells); assay type: cell-based; details: for activation at 1 µM: CHO-K1, 24 h, read-out: PPARγ activating action (activation % (10^−6 M))
T1 construct: expressed in transfected cells; host or cells: CHO-K1
T1 sequence (P37231 1-477 isoform P37231-2): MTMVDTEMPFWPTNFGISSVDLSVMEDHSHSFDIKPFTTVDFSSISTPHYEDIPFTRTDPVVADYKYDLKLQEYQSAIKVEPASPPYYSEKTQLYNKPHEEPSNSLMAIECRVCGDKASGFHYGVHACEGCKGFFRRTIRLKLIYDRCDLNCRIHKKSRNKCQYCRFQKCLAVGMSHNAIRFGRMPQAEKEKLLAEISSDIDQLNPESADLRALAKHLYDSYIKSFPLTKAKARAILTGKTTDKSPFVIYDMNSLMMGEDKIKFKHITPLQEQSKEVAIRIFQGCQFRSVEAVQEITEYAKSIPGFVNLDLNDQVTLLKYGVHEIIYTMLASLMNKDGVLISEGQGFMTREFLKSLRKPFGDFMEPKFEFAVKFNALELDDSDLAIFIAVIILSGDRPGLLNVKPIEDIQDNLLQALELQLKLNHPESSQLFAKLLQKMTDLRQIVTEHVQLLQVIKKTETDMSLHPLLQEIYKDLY
T1 sequence (P19793 1-462 partner): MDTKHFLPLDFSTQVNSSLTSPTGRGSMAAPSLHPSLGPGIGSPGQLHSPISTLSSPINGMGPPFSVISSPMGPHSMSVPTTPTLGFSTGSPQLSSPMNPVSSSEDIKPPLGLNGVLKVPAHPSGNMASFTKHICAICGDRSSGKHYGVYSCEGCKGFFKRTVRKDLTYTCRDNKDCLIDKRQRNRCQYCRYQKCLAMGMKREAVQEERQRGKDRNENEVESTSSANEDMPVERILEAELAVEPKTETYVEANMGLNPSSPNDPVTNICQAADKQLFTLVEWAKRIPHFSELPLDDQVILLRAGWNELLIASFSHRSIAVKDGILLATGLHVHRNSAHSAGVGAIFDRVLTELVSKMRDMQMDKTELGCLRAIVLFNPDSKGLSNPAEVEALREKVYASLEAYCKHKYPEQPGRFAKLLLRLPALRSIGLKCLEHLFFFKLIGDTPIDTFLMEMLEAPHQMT
Protocol: PPARγ:RXRα:4ERPP/CHO-K1 cells obtained in the following Reference Example 5 were cultured in F12 medium [manufactured by INVITROGEN, USA] containing 10% fetal bovine serum [manufactured by MOREGATE, Australia], seeded in a 96-well half area white plate [manufactured by Corning Coster Corporation, USA] at the density of 5×10^3 cells/well and cultured in a CO2 gas incubator at 37° C. overnight.
Then the medium was removed from the 96-well half area white plate, 45 μl of Ham's F12 medium containing 0.1% fatty acid-free bovine serum albumin (BSA) and 5 μl of test compound were added, and the cells were cultured in a CO2 gas incubator at 37° C. for 1 day. The medium was removed and 20 μl of PicaGene 7.5 [manufactured by TOYO INK MFG. CO., LTD., Japan] diluted 2-fold with HBSS (HANKS' BALANCED SALT SOLUTION) [manufactured by BIO WHITTAKER, USA] was added. After stirring, the luciferase activity was determined using 1420 ARVO Multilabel Counter [manufactured by PerkinElmer, USA].
The percent (%) was calculated from the luciferase activity of each test compound when the luciferase activity of the control compound (compound X: 5-[3-(4-{[2-(2-furyl)-5-methyl-1,3-oxazol-4-yl]methoxy}-3-methoxyphenyl)propyl]-1,3-oxazolidine-2,4-dione) (1 μM) was 100% and that of the test compound non-administration group was 0%.
A CHO-K1 cell cultured in a 150 cm^2 cell culture flask [manufactured by Corning Costar Corporation, USA] containing Ham's F12 medium [manufactured by INVITROGEN, USA] supplemented with 10% fetal bovine serum [manufactured by INVITROGEN, USA] was scraped by treating with 0.5 g/L trypsin-0.2 g/L EDTA (ethylenediaminetetraacetic acid) [manufactured by Life Technologies, Inc., USA], and then the cell was washed with PBS (Phosphate-buffered saline) [manufactured by INVITROGEN, USA], centrifuged (1000 rpm, 5 minutes) and suspended in PBS. Subsequently, DNA was introduced into the cell under the conditions shown below using GENE PULSER [manufactured by Bio-Rad Laboratories, USA].
Namely, to a cuvette having a 0.4 cm gap were added 8×10^6 cells and 10 μg of plasmid pVgRXR2-hPPARγ obtained in Reference Example 4 and 10 μg of reporter plasmid pGL3-4ERPP-TK neo obtained in Reference Example 3, which was subjected to electroporation at the voltage of 0.25 kV under the capacitance of 960 μF. Subsequently, the cell was transferred into a F12 medium containing 10% fetal bovine serum and cultured for 24 hours, and then the cell was scraped again and centrifuged, and then suspended in Ham's F12 medium containing 10% fetal bovine serum supplemented with 500 μg/ml of Geneticin [manufactured by INVITROGEN, USA] and 250 μg/ml of Zeocin [manufactured by INVITROGEN, USA]. The obtained suspension was diluted to the density of 1 cells/ml and inoculated in a 96-well plate [manufactured by Corning Costar Corporation, USA], which was cultured in a CO2 gas incubator at 37° C., whereby obtaining a Geneticin- and Zeocin-resistant transformant.
Subsequently, after the transformant cell line thus obtained was cultured in a 24-well plate [manufactured by Corning Costar Corporation, USA], a cell line in which the luciferase was expressed and induced, i.e., PPARγ:RXRα:4ERPP/CHO-K1 cell was selected by the addition of 10 μM pioglitazone hydrochloride.

[2] = target: T2, human AT1 receptor (Homo sapiens, UniProt P30556); assay: Binding assay using human AT1 receptor-expressing CHO-K1 cell membrane fraction ([125I]-angiotensin II); details: 22.5 pM [125I]-angiotensin II, 9 μg AT1 membrane, 1 hr room temperature; read-out: AT1 receptor binding inhibitory action (IC50 (nM))
T2 construct: expressed in transfected cells; host or cells: CHO-K1
T2 sequence (P30556 1-359): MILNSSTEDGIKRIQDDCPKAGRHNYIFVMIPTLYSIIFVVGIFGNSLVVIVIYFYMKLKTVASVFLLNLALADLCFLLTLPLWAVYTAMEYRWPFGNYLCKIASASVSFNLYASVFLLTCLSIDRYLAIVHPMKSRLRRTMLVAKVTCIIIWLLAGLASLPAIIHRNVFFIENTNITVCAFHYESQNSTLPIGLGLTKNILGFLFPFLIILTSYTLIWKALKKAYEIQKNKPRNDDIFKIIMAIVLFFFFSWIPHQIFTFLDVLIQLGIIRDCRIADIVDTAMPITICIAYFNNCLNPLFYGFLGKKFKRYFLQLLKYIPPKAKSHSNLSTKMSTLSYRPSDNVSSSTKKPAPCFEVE
Protocol: The membrane fraction for human AT1 receptor binding assay was prepared as follows. CHO-K1 cell capable of stable expression of human AT1 receptor was cultured, recovered, suspended in homogenize buffer (10 mM NaHCO3 (pH 7.4), 5 mM EDTA, 1×Complete EDTA free) [manufactured by Roche, Switzerland], and homogenized. The homogenate was centrifuged at low-speed (900×g, 10 min, 4° C.), and the supernatant was recovered and ultracentrifuged (90,000×g, 1 hr, 4° C.). The supernatant was discarded, and the pellets were resuspended in resuspension buffer (50 mM Tris (pH 7.4), 1 mM EDTA, 1×Complete EDTA free).
The binding assay was performed in the presence of 22.5 pM [^125I]-angiotensin II [manufactured by PerkinElmer, USA], 9 μg of AT1 membrane and test compound in 100 μL (total reaction volume) of reaction buffer (50 mM Tris (pH 7.4), 10 mM MgCl2 supplemented or not supplemented with 0.3 mg/mL fatty acid-free bovine serum albumin [manufactured by Wako Pure Chemical Industries, Ltd., Japan]). […] The filter was air-dried, and [^125I]-angiotensin II binding radioactivity was assayed with Top Count scintillation counter. Total binding was measured in the presence of 1% DMSO and nonspecific binding was measured in the presence of 1 μM CV-11974. […]

[3] = test compound 10^−6 M, luciferase activity of control compound X (1 μM) = 100%, non-administration group = 0%

| SMILES | PPARγ activating action (activation % (10^−6 M)) [1, 3] [%] | also measured |
| --- | --- | --- |
| CCCc1nc(CC)n(-c2ccc3c(c2)CCO3)c(=O)c1Cc1ccc(-c2ccccc2-c2noc([O-])n2)cc1.[K+] [Example 311, 3-(2,3-dihydro-1-benzofuran-5-yl)-2-ethyl-5-{[2′-(5-oxo-4,5-dihydro-1,2,4-oxadiazol-3-yl)biphenyl-4-yl]methyl}-6-propylpyrimidin-4(3H)-one potassium salt] | 38.1 | – |
| CCCc1nc(CC)n(-c2ccc(OC)cc2)c(=O)c1Cc1ccc(-c2ccccc2-c2noc([O-])n2)cc1.[K+] [Example 313, 2-ethyl-3-(4-methoxyphenyl)-5-{[2′-(5-oxo-4,5-dihydro-1,2,4-oxadiazol-3-yl)biphenyl-4-yl]methyl}-6-propylpyrimidin-4(3H)-one potassium salt] | 31.0 | – |
| CCCc1nc(CC)c(Oc2cccc(OC)c2)c(=O)n1Cc1ccc(-c2ccccc2-c2noc(O)n2)cc1 [Example 488, 6-ethyl-5-(3-methoxyphenoxy)-3-{[2′-(5-oxo-4,5-dihydro-1,2,4-oxadiazol-3-yl)biphenyl-4-yl]methyl}-2-propylpyrimidin-4(3H)-one potassium salt] | 16.7 | – |
| CCCCc1nc(C2CC2)n(-c2ccccc2)c(=O)c1Cc1ccc(-c2ccccc2-c2noc([O-])n2)cc1.[K+] [Example 310, 6-butyl-2-cyclopropyl-5-{[2′-(5-oxo-4,5-dihydro-1,2,4-oxadiazol-3-yl)biphenyl-4-yl]methyl}-3-phenylpyrimidin-4(3H)-one potassium salt] | 27.1 | – |
| CCCCc1nc(CC)n(Cc2ccccc2)c(=O)c1Cc1ccc(-c2ccccc2-c2noc(=O)[nH]2)cc1 [Example 105, 3-benzyl-6-butyl-2-ethyl-5-{[2′-(5-oxo-4,5-dihydro-1,2,4-oxadiazol-3-yl)biphenyl-4-yl]methyl}pyrimidin-4(3H)-one] | 64.1 | – |
| CCCCc1nc(CC)n(CC(=O)C(C)(C)C)c(=O)c1Cc1ccc(-c2ccccc2-c2noc(O)n2)cc1 [Example 309, 6-butyl-3-(3,3-dimethyl-2-oxobutyl)-2-ethyl-5-{[2′-(5-oxo-4,5-dihydro-1,2,4-oxadiazol-3-yl)biphenyl-4-yl]methyl}pyrimidin-4(3H)-one potassium salt] | – | activation at 1 µM [1]: 31.5%; IC50 [2]: 1.6 nM |
| CCCc1nc(CC)c(C(O)C(C)C)c(=O)n1Cc1ccc(-c2ccccc2-c2noc(O)n2)cc1 (centres unmarked) [Example 473, 6-ethyl-5-(1-hydroxy-2-methylpropyl)-3-{[2′-(5-oxo-4,5-dihydro-1,2,4-oxadiazol-3-yl)biphenyl-4-yl]methyl}-2-propylpyrimidin-4(3H)-one potassium salt] | 15.7 | – |
| CCCc1nc(CC)n(-c2ccc3c(c2)CC(C)O3)c(=O)c1Cc1ccc(-c2ccccc2-c2noc([O-])n2)cc1.[K+] (centres unmarked) [Example 312, 2-ethyl-3-(2-methyl-2,3-dihydro-1-benzofuran-5-yl)-5-{[2′-(5-oxo-4,5-dihydro-1,2,4-oxadiazol-3-yl)biphenyl-4-yl]methyl}-6-propylpyrimidin-4(3H)-one potassium salt] | 50.3 | – |
| CCCc1nc(C(F)F)n(-c2ccc(OC)cc2)c(=O)c1Cc1ccc(-c2ccccc2-c2noc(=O)[nH]2)cc1 [Example 410, 2-(difluoromethyl)-3-(4-methoxyphenyl)-5-{[2′-(5-oxo-4,5-dihydro-1,2,4-oxadiazol-3-yl)biphenyl-4-yl]methyl}-6-propylpyrimidin-4(3H)-one] | – | activation at 1 µM [1, 3]: 19.5% |
| CCCc1nc(C)c(Oc2ccc(OC)cc2)c(=O)n1Cc1ccc(-c2ccccc2-c2noc(O)n2)cc1 [Example 476, 5-(4-methoxyphenoxy)-6-methyl-3-{[2′-(5-oxo-4,5-dihydro-1,2,4-oxadiazol-3-yl)biphenyl-4-yl]methyl}-2-propylpyrimidin-4(3H)-one potassium salt] | 18.5 | – |
